Active and inactive are the calls of the source.
Experiments:
[1] = molecular target: E3 ubiquitin-protein ligase XIAP (Homo sapiens, UniProt P98170); assay: Counter Screen using XIAP-Bir3 for Chemical Antagonists of Bir1/2 domains of IAP-family anti-apoptotic proteins. [Related pubchem assays (depositor defined):AID1018, AID1449, AID1514, AID1638, AID1749, AID1750, AID488957, AID488963]
[2] = fluorescence interference artefacts, compound only, dose response, artefact control for cardiac thin filament activator project, biochemical, no RTF in test wells (AID 504697)
Troponin, cardiac muscle = Troponin, cardiac muscle (Homo sapiens, UniProt P19429+P45379+P63316); assay: Fluorescence-based biochemical high throughput dose response assay for activators of the calcium sensitivity of cardiac Regulated Thin Filaments (RTF). [Related pubchem assays (depositor defined):AID493008, AID493018, AID504382, AID504383]; type: protein-complex assay
[3] = molecular target: T1, Long-chain-fatty-acid--AMP ligase FadD28 (Mycobacterium tuberculosis, UniProt P9WQ59); assay: Fluorescence polarization aasay to screen for inhibitors that compete for the binding of FadD28 to a bisubstrate Measured in Biochemical System Using Plate Reader - 2147-01_Inhibitor_Dose_CherryPick_Activity.; type: functional, Mycobacterium tuberculosis H37Rv
T1 sequence (P9WQ59 whole entry): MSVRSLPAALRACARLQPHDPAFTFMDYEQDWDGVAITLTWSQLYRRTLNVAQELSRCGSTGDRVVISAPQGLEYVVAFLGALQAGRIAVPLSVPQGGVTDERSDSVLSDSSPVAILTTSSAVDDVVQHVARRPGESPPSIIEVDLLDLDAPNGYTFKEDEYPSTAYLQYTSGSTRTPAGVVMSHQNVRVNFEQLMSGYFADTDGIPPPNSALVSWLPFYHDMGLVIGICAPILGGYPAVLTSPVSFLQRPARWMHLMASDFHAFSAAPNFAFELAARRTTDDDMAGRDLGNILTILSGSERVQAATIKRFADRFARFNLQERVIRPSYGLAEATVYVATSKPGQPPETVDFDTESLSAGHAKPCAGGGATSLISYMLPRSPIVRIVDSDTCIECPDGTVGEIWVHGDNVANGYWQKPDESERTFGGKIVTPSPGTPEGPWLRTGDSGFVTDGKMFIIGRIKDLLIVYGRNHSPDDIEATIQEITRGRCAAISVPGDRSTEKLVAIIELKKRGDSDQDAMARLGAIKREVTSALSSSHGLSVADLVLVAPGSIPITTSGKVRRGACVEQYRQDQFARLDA

[4] = molecular target: T2, G-protein coupled receptor 35 (Homo sapiens, UniProt Q9HC97); assay: SAR analysis of Agonists of the GPR35 Receptor using an Image-Based Assay - Set 4. [Related pubchem assays (depositor defined):AID2013, AID2026]; type: functional
T2 sequence (Q9HC97 whole entry): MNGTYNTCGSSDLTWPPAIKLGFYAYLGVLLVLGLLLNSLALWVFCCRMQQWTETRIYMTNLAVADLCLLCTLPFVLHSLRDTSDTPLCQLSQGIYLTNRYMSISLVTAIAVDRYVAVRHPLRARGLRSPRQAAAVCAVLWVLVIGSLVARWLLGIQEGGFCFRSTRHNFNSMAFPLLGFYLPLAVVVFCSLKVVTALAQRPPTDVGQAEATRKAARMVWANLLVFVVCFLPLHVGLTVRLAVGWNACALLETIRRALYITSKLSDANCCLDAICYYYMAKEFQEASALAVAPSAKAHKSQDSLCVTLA

Cannabinoid receptor 1 [5] = molecular target: T3, Cannabinoid receptor 1 (Homo sapiens, UniProt P21554); assay: SAR analysis of agonists of the Cannabinoid Receptor 1 using an Image-Based Assay - Set 4. [Related pubchem assays (depositor defined):AID2013, AID2026]; type: functional
T3 sequence (P21554 whole entry): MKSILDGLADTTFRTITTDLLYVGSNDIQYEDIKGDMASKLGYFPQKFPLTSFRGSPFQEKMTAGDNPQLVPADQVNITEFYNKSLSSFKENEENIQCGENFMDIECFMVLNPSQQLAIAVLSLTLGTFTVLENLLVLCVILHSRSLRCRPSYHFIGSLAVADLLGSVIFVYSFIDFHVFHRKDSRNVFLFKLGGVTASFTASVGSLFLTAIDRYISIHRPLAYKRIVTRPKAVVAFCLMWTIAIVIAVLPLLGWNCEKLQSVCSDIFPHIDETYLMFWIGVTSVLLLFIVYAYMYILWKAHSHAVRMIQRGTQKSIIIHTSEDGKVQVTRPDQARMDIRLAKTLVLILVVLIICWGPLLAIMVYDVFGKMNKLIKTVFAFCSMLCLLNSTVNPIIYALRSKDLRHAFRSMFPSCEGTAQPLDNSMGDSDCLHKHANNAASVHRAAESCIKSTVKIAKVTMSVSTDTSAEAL

[6] = molecular target: T2, G-protein coupled receptor 35; assay: SAR analysis of Antagonists of the GPR35 Receptor using an Image-Based Assay - Set 6. [Related pubchem assays (depositor defined):AID2013, AID2026]; type: functional
Cannabinoid receptor 1 [7] = molecular target: T3, Cannabinoid receptor 1; assay: SAR analysis of antagonists of the Cannabinoid Receptor 1 using an Image-Based Assay - Set 4. [Related pubchem assays (depositor defined):AID2013, AID2026]; type: functional
[8] = molecular target: G-protein coupled receptor 55 (Homo sapiens, UniProt Q9Y2T6); assay: SAR Analysis of Selective Antagonists of GPR55 using an Image-Based Assay - Set 4. [Related pubchem assays (depositor defined):AID2013, AID2026]; type: functional;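 further: antagonism of response to 5 µM lysophosphatidylinositol agonist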
Sequence of G-protein coupled receptor 55 (Q9Y2T6 whole entry): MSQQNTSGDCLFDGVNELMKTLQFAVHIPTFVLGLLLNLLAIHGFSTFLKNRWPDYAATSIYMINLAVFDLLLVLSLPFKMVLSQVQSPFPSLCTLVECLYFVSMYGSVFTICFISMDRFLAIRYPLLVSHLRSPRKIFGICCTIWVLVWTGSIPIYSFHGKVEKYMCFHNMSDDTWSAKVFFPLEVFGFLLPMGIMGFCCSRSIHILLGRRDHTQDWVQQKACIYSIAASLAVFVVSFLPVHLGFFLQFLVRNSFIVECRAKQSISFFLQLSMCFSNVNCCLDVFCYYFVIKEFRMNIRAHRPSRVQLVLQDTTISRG

Cannabinoid receptor 2 [9] = molecular target: T4, Cannabinoid receptor 2 (Homo sapiens, UniProt P34972); assay: SAR analysis of antagonists of the Cannabinoid Receptor 2 using an Image-Based Assay - Set 3. [Related pubchem assays (depositor defined):AID2013, AID2026]; type: functional
T4 sequence (P34972 whole entry): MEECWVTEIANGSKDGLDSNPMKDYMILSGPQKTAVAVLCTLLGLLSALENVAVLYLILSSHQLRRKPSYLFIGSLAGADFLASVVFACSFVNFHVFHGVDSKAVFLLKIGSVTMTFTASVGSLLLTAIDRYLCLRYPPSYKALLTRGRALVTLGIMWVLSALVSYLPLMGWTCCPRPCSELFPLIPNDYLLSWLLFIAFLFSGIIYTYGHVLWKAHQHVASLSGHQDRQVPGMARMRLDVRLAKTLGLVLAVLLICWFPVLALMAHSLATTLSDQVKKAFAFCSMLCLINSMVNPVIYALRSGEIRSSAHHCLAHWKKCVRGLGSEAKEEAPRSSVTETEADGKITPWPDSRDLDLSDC

Cannabinoid receptor 2 [10] = molecular target: T4, Cannabinoid receptor 2; assay: SAR analysis of agonists of the Cannabinoid Receptor 2 using an Image-Based Assay - Set 3. [Related pubchem assays (depositor defined):AID2013, AID2026]; type: functional
[11] = molecular target: Tyrosine-protein phosphatase non-receptor type 12 (Homo sapiens, UniProt Q05209); assay: SAR Selectivity Analysis of small molecule inhibitors of PEST using pCAP in a fluorescence assay. [Related pubchem assays (depositor defined):AID1779, AID1784, AID2135]; type: functional
Sequence of Tyrosine-protein phosphatase non-receptor type 12 (Q05209 whole entry): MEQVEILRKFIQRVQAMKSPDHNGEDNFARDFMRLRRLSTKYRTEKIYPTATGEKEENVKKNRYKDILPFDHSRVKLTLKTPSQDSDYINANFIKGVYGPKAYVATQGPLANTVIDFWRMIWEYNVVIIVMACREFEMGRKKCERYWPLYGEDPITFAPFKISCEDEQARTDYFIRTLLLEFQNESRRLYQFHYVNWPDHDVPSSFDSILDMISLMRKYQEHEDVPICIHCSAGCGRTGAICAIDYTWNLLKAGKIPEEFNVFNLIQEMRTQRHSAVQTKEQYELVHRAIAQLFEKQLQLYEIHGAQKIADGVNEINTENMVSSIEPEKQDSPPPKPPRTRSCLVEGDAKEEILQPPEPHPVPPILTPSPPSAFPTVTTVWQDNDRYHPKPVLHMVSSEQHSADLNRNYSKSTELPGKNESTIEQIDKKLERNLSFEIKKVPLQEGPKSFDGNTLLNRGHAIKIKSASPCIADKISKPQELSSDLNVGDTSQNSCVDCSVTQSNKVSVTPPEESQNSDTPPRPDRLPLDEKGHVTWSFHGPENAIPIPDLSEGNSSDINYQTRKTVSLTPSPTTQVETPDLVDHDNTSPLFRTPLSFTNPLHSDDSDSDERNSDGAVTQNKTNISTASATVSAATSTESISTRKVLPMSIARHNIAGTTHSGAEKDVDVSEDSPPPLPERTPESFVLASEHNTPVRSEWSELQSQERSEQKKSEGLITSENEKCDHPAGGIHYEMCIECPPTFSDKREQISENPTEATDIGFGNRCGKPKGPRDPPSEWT

[12] = molecular target: T5, Tyrosine-protein phosphatase non-receptor type 22 (Homo sapiens, UniProt Q9Y2R2); assay: SAR LYP1 Fluorescent Assay using OMFP substrate for In Vitro dose response studies - Set 3. [Related pubchem assays (depositor defined):AID1779, AID1784, AID2140, AID2686]; type: functional
T5 sequence (Q9Y2R2 whole entry): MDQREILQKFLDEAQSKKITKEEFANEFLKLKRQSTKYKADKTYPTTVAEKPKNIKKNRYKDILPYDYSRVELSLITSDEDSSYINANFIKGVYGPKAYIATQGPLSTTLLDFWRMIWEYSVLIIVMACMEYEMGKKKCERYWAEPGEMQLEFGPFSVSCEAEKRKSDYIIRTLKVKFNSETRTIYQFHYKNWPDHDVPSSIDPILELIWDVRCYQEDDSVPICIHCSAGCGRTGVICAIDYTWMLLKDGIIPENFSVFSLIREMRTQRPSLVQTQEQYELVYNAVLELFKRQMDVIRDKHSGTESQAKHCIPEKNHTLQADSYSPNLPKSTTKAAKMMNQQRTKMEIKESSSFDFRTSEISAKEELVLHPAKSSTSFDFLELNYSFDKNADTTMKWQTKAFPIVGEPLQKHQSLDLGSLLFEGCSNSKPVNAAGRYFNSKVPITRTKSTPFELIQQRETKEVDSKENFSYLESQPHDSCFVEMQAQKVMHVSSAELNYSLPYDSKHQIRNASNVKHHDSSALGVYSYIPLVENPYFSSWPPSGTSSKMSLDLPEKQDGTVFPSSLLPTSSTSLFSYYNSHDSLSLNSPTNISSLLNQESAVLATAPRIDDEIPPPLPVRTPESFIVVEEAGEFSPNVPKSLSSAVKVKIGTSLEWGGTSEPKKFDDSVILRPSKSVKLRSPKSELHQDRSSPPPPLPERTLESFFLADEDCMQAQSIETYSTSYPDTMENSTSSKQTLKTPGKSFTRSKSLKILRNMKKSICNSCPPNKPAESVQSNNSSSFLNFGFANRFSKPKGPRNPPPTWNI

[13] = molecular target: T6, Tyrosine-protein phosphatase non-receptor type 7 (Homo sapiens, UniProt P35236); assay: redox-dependent HePTP inhibition, mechanism study, biochemical, fluorescence (AID 2068); type: functional
T6 sequence (P35236 whole entry): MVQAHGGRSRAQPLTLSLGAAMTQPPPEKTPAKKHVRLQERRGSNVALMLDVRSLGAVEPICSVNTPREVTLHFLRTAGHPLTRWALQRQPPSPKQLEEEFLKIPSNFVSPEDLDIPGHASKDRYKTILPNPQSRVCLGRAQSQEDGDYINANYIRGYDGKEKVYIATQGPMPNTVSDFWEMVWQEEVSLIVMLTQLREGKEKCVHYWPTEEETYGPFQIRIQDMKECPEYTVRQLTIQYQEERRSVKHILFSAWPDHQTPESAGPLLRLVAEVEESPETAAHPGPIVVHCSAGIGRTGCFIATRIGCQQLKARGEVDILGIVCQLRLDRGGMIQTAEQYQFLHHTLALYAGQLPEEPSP

[14] = molecular target: T6, Tyrosine-protein phosphatase non-receptor type 7; assay: HePTP (PTPN7) phosphatase inhibitor potency, SAR follow-up, biochemical, set 2 (AID 449736); type: functional
[15] = molecular target: T5, Tyrosine-protein phosphatase non-receptor type 22; assay: LYP (PTPN22) phosphatase inhibitor potency, SAR follow-up, biochemical, pCAP fluorogenic substrate, fluorescence, set 3 (AID 449727); type: functional
[16] = molecular target: Dual specificity protein phosphatase 3 (Homo sapiens, UniProt P51452); assay: SAR VHR1 Fluorescent Assay for In Vitro dose response studies Set 2. [Related pubchem assays (depositor defined):AID1654, AID1661, AID1878]; type: functional
Sequence of Dual specificity protein phosphatase 3 (P51452 whole entry): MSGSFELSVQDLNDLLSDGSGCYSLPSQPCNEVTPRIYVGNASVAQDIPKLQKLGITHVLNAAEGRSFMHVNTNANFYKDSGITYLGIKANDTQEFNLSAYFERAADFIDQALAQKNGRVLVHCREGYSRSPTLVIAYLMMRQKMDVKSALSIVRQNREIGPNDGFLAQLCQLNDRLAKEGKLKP

[17] = molecular target: T7, Dual specificity protein phosphatase 6 (Rattus norvegicus, UniProt Q64346); type: functional;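 further: confirmatory in vitro dose-response testing of MKP-3 inhibition; recombinant His-tagged MKP-3 made in E. coli BL21 with OMFP substrate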
T7 sequence (Q64346 whole entry): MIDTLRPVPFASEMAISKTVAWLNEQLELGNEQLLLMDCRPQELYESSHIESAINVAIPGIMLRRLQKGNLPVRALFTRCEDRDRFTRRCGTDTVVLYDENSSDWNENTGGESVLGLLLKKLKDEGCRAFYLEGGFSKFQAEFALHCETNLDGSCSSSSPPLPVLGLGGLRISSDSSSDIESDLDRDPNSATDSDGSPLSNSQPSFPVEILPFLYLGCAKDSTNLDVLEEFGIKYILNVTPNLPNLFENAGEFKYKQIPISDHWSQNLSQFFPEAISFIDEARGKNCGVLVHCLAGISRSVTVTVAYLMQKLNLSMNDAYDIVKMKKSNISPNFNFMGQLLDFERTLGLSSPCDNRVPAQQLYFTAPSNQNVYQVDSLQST

Sequence of E3 ubiquitin-protein ligase XIAP (P98170 whole entry): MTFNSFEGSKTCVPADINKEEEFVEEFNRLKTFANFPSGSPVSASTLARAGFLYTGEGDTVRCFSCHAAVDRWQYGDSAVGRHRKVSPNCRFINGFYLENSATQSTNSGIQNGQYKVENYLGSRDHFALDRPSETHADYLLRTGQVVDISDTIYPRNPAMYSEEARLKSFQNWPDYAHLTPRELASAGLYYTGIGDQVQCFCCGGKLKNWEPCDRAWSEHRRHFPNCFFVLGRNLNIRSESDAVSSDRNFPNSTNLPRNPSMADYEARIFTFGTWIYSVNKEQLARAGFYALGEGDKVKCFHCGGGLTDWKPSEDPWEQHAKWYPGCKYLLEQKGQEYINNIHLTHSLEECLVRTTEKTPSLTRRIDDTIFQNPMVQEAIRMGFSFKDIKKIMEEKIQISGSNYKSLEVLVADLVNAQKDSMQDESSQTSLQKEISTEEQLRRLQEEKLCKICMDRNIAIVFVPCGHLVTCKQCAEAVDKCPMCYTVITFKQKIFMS

## CCN1C(=O)C(=CNc2ccc(N3CCOCC3)cc2)C(=O)N(CC)C1=S
[1]
  IC50: > 20 µM (inactive)
[2]
  EC50: > 7.94 µM (active)
Troponin, cardiac muscle
  EC50: 5.15 µM (active)
[3]
  AC50: > 100 µM (inactive)

## COc1ccc(-c2nnc(C)c3nn(-c4ccc(C)cc4)cc23)cc1
[4]
  EC50: > 32 µM (inactive)
Cannabinoid receptor 1 [5]
  EC50: > 32 µM (inactive)
[6]
  IC50: > 32 µM (inactive)
Cannabinoid receptor 1 [7]
  IC50: 3.56 µM (active)
[8]
  IC50: > 32 µM (inactive)
Cannabinoid receptor 2 [9]
  IC50: > 15.6 µM (inactive)
Cannabinoid receptor 2 [10]
  EC50: > 32 µM (inactive)

## CCOc1cc(/C=C2\SC(=O)N(CC(=O)Nc3ccc(C)cc3)C2=O)cc(Cl)c1OCC(=O)OC
[11]
  IC50: > 100 µM (inactive)
[12]
  IC50: > 100 µM (inactive)
[13]
  IC50: 17.9 µM (active)
[14]
  IC50: 9.66 µM (active)
[15]
  IC50: > 100 µM (inactive)
[16]
  IC50: > 100 µM (inactive)
[17]
  IC50: > 100 µM (inactive)

Reference: ChEMBL document CHEMBL1201862, “PubChem BioAssay data set” (2004)
